Experiments:
A2780 cells [1] = assay: Cell viability by MTT assay, A2780; assay type: cell-based; details: Homo sapiens, 48 h
Experimental: (§1) A2780 and SKOV3 cell lines were purchased from the European Collection of Cell Cultures (ECACC, London, UK) and Korean Cell Line Bank (KCLB, Seoul, Republic of Korea) respectively. Each cell line was seeded in a 96-well plate at an appropriate cell number (3000 cells/100 μL in each well). After 24 h, butein was added to the plates at each of the following concentrations, 0, 3.125, 6.25, 12.5, 25, and 50 μM, in triplicate in the presence of serum medium. After 48 h, 100 μL of […] (Sigma-Aldrich, St. Louis, MO, USA) solubilizing solution was added to each well and incubated for 4 h. The solution was then aspirated, and 100 μL of DMSO was added for cell lysis. The spectrophotometric absorbance was measured at 540 nm. Half of the maximum inhibitory concentration (IC50) was determined using GraphPad Prism software (version 7.0).

gp130 = biological target: T1, gp130 (Homo sapiens, UniProt P40189); assay: Surface plasmon resonance, immobilized gp130; assay type: binding; details: SPR, CM5 chip, steady-state KD
T1 construct: purchased Sino Biological or ANRT
T1 sequence (P40189 23-918): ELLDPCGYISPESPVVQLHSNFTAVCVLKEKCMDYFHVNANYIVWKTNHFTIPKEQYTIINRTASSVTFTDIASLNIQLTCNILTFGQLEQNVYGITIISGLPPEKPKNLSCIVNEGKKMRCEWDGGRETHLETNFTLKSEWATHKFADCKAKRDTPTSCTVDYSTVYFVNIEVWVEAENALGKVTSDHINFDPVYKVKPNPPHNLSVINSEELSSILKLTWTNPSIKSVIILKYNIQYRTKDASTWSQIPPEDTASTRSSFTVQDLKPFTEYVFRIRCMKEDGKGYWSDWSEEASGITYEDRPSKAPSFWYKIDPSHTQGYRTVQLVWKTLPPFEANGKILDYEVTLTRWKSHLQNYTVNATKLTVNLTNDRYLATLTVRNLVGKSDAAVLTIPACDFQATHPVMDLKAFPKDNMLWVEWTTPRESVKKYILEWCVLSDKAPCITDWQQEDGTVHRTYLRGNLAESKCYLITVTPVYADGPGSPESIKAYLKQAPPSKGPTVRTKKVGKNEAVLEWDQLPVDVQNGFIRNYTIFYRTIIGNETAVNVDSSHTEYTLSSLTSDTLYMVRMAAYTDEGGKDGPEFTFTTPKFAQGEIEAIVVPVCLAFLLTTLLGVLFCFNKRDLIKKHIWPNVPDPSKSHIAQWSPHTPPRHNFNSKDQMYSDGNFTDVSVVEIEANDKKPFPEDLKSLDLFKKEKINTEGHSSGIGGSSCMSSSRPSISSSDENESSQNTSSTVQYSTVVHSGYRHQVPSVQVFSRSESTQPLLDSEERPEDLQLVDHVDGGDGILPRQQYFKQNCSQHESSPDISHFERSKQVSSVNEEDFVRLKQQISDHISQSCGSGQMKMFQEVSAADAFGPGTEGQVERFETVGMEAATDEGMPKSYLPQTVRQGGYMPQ
Experimental: The surface plasmon resonance (SPR) assay was measured using the BIAcore T200 model (GE Healthcare, Chicago, IL, USA) with HBS-EP buffer (1×HBS-EP, GE Healthcare, Chicago, IL, USA) containing 5% dimethyl sulfoxide (DMSO; Sigma-Aldrich, St. Louis, MO, USA). The pH scouting for IL-6 (PeproTech, Rocky Hill, NJ, USA), IL-6Rα (PeproTech, Rocky Hill, NJ, USA), and gp130 (Sino Biological, Beijing, China, or ANRT, Daejeon, Korea) immobilization was performed in 10 mM acetate buffer at pH 4.5. IL-6, IL-6Rα, and gp130 were immobilized on a CM5 chip at 750, 1200, and 2000 response units (RU). Butein was injected into the IL-6, IL-6Rα and gp130-immobilized flow cell at concentrations of 10, 20, 30, 40, 50, 60, 70, 80, 90, and 100 μM with a 25 μL/min flow rate for 150 s and allowed to dissociate for 300 s. Steady-state KD was determined via the T-200 BIAevaluation software (GE Healthcare, Chicago, IL, USA).

A2780 cells [2] = assay: Wound-healing assay, A2780; assay type: cell-based, human; details: 24 h and 48 h, concentration-dependent, vs control, 0.1% DMSO and siltuximab
Experimental: A2780 and SKOV3 cells were cultured to 90% confluence in 6-well plates. After changing to a serum-free medium, the cell monolayer was scraped to artificially form homogeneous wound with uniform thickness. The drug treatment for each well was carried out in the following manner: siltuximab at 50 μM; butein at 10, 25, and 50 μM. The cells were imaged at 0, 24, and 48 h.

SKOV3 cells [3] = assay: Flow cytometric cell cycle analysis (PI), SKOV3; assay type: cell-based, human; details: butein treatment; 58.3% under control conditions
Experimental: A2780 and SKOV3 cell lines were treated with control (siltuximab 10 μM) and butein (5, 10, and 25 μM). After 6 h, the cells were fixed with 70% ethanol for cell cycle analysis and stained with propidium iodide (PI). Cell death was analyzed using the FITC Annexin V Apoptosis Detection kit with 7-AAD (Cat.no. 640922, BioLegend, San Diego, CA, USA). Cells were sorted using a FACS Canto II (BD Biosciences, Franklin Lakes, NJ, USA) and cell cycle and apoptosis were analyzed using BD FACS Diva software version 6. 2. Analysis (BD Biosciences, Franklin Lakes, NJ, USA) was performed in triplicate.

SKOV3 cells [4] = assay: Cell viability by MTT assay, SKOV3; assay type: cell-based; details: Homo sapiens, SK-OV-3, 48 h
Experimental: as §1

IC50 (A2780 cells [1]): 64.7 ± 6.27 µM
Kd (gp130): 616 µM
IC50 (SKOV3 cells [4]): 175 ± 61.9 µM
SMILES: O=C(/C=C/c1ccc(O)c(O)c1)c1ccc(O)cc1O [butein]
Cell migration, A2780 (A2780 cells [2]): reduced
SKOV3 cells in G1-phase (SKOV3 cells [3]): 65.8%

From article PMC10094418, “Butein Inhibits Cell Growth by Blocking the IL-6/IL-6Rα Interaction in Human Ovarian Cancer and by Regulation of the IL-6/STAT3/FoxO3a Pathway” (International Journal of Molecular Sciences, 2023)
